Reference: patent publication US20160361314A1, “COMBINATION OF AN ALK INHIBITOR AND A CDK INHIBITOR FOR THE TREATMENT OF CELL PROLIFERATIVE DISEASES” (NOVARTIS AG, priority 2013, published 2016)
“Also recorded” adds a separate entry of the source.

How the values were obtained:
Format in all cases: cell-based
[1] = tested on: IMR-5 human neuroblastoma cells; assay: Loewe additivity (CHALICE) synergy screen, CellTiter-Glo viability, 7x7 dose matrix; parameters: key to Max Combo Effect: growth inhibition scale; 100 = stasis
Protocol: (§1) The synergistic interaction of drug combinations were assessed based on the Loewe Additivity Model using Chalice software [CombinatoRx, Cambridge Mass.]). […] 27:659-66. The software compares the response (% inhibition or % reduction of cell viability) of drug treatment from a combination of two agents to the response of the agents acting alone, against the drug-with-itself dose-additive reference model (the Loewe Additivity Model). Deviations from dose additives can be assessed numerically with a “synergy score” which quantifies the overall strength of combination effect. A synergy score >0 indicates a synergistic combination. In order to ensure only strongly synergistic combinations were selected, the acceptance criteria were set at a higher level. Strongly synergistic combinations were defined as having both a synergy score >2, a synergy score that is twice as large as the background (non-synergy) model would predict, and a maximum efficacy of >100, a value equivalent to stasis, as determined from the growth inhibition calculation.
(§2) After treatment, cell viabilty (quantity of viable cells) for each test mixtures were determined by the CellTiter-Glo® (CTG) luminescent cell viability assay (Promega) described in the Assay section, infra. […] The response to treatment (% reduction of cell viability) was analyzed using Chalice software [CombinatoRx, Cambridge Mass.]). Data evaluation and graph generation were performed using Microsoft Excel software and Chalice software.
(§3) The combinations were tested in duplicate using a 7×7 dose matrix block in 1536 well format with a cell proliferation readout as described in the Assay section infra.
(§4) All synergy calculations were performed using CHALICE software package from Zalicus and potential synergistic interactions between compound combinations were assessed using the Excess Inhibition 2D matrix according to the Loewe additivity model and were reported as synergy score (Table 10) (Lehar et al). Strongly synergistic combination were identified as having both (1) a synergy score greater than 2, a synergy score that is twice as large as the background (non-synergy) model would predict, and (2) a maximum efficacy of >100, a value roughly equivalent to stasis, as determined from the growth inhibition calculation.
(§5) Cell viability were determined by measuring cellular ATP content using the CellTiter-Glo® (CTG) luminescent cell viability assay (Promega). […] Reduced and enhanced luminescent signal values (responses) were calculated relative to untreated (control) cells, and the calculated signal value proportional to the cell viability.
(§6) Synergistic combinations were identified based on the Loewe Addivity Model. To measure the effects of drug combinations on the cell viability, cells from the 20 cell lines listed in Table 1 above were seeded into 1536-well assay plates at a density 300 cells per well in a 7 μL final volume and incubated at 37° C. overnight in a GNF Systems incubator with 95% RH and 5% CO2.
(§7) A six-point dose response curve for the test compounds were prepared in a 384 well ECHO compatible source plate (Labcyte P-05525) with 3-fold serial dilution series. For example, for a six-point dose response curve and a top compound concentration of 5 mM, the concentration of the compounds in the source well were 5 mM, 1.67 mM, 0.56 mM, 0.19 mM, 0.06 mM and 0.02 mM.
(§8) Approximately 18 hours after plating, compound combinations were generated on the fly by transferring 7.5 nL of compound from the pre-diluted source plates using the Labcyte ECHO555 integrated onto the ACP-1 system with replicate plates per cell line; the final DMSO concentration per well was 0.2%. It is noted that the total volume in the wells was 7 μL.
(§9) The well at the intersection of the first column and first row which received no compound was dosed with 2×7.5 nL of DMSO and served as control.

[2] = tested on: SH-SY5Y human neuroblastoma cells; assay: as above; parameters: key to Max Combo Effect: growth inhibition scale; 100 = stasis; conditions: SH-SY5Y (F1174L)
Protocol: as §1, §2, §3, §4, §5, §6, §7, §8, §9

[3] = tested on: SK-N-BE(2) human neuroblastoma cells; assay: as above; parameters: key to Max Combo Effect: growth inhibition scale; 100 = stasis; conditions: SK-N-BE(2) (WT)
Protocol: as §1, §2, §3, §4, §5, §6, §7, §8, §9

[4] = tested on: NLF human neuroblastoma cells; assay: as above; parameters: key to Max Combo Effect: growth inhibition scale; 100 = stasis; conditions: NLF (WT)
Protocol: as §1, §2, §3, §4, §5, §6, §7, §8, §9

[5] = tested on: SK-N-FI human neuroblastoma cells; assay: as above; parameters: key to Max Combo Effect: growth inhibition scale; 100 = stasis; conditions: SK-N-FI (WT); for Max Combo Effect: in % (unit assumed)
Protocol: as §1, §2, §3, §4, §5, §6, §7, §8, §9

[6] = tested on: CHP-134 human neuroblastoma cells; assay: as above; parameters: key to Max Combo Effect: growth inhibition scale; 100 = stasis; conditions: for Max Combo Effect: in % (unit assumed)
Protocol: as §1, §2, §3, §4, §5, §6, §7, §8, §9

[7] = tested on: NB-SD human neuroblastoma cells; assay: as above; parameters: key to Max Combo Effect: growth inhibition scale; 100 = stasis; conditions: NB-SD (F1174L); for Max Combo Effect: in % (unit assumed)
Protocol: as §1, §2, §3, §4, §5, §6, §7, §8, §9

[8] = tested on: KELLY human neuroblastoma cells; assay: as above; parameters: key to Max Combo Effect: growth inhibition scale; 100 = stasis; conditions: KELLY (F1174L)
Protocol: as §1, §2, §3, §4, §5, §6, §7, §8, §9

[9] = tested on: NB-1691 human neuroblastoma cells; assay: as above; parameters: key to Max Combo Effect: growth inhibition scale; 100 = stasis; conditions: NB-1691 (WT); for Max Combo Effect: in % (unit assumed)
Protocol: as §1, §2, §3, §4, §5, §6, §7, §8, §9

[10] = tested on: panel of human neuroblastoma cell lines (ALK mutant and wild type); assay: Loewe additivity (CHALICE) synergy screen, results over the whole panel
Protocol: as §1, §2
The statistical variation of the synergy scores tabulated in Tables 2 and 3 were graphically illustrated by a Box Plot (FIG. 3). […] The ALK×ALK and CDK4/6×CDK4/6 combination is moderately sygergistic with synergy score at 1.011 (sd=0.4) and 1.16 (sd=0.43), respectively. In ALK normal cells, the combinations and the self-cross treatments were not sygeristic with synergistic score of about 0.5, but similarly large standard deviations.
For visual identification for strongly synergistic compositions, the data in Tables 2 and 3 were presented in scatter plots (FIGS. 4 A-C) where maximum combination efficacy were plotted against the synergy scores. Only data from two of the three ALK inhibitors, compounds A1 and A2 were included. In a scatter plot, a vertical shift implies additive effect; a right shift implies synergistic interactions and a diagonal shift implies synergy with a boost in efficacy. Synergistic combination hits are those in the upper right quadrant where the synergy score is >2 and the maximum efficacy is >100.
as §3, §4, §5
Synergistic combinations were identified based on the Loewe Addivity Model.

## CN(C)C(=O)c1cc2cnc(Nc3ccc(N4CCNCC4)cn3)nc2n1C1CCCC1 [Compound B, 7-cyclopentyl-N,N-dimethyl-2-((5-(piperazin-1-yl)pyridin-2-yl)amino)-7H-pyrrolo[2,3-d]pyrimidine-6-carboxamide]
[1]; IMR-5 (ALK WT), Table 2
  Max Combo Effect: 82.0
  Synergy score (Mean): 0.788
[1]; IMR-5 (WT), Table 3
  Max Combo Effect: 89.02
  Synergy score (Mean): 1.04
[2]; Table 2
  Max Combo Effect: 86.8
  Synergy score (Mean): 0.811
[2]; Table 3
  Max Combo Effect: 35.3
  Synergy score (Mean): 0.09
[3]; Table 2
  Max Combo Effect: 75.2
  Synergy score (Mean): 0.628
[3]; Table 3
  Max Combo Effect: 93.3
  Synergy score (Mean): 1.41
[4]; Table 2
  Max Combo Effect: 43.9
  Synergy score (Mean): 0.122
[4]; Table 3
  Max Combo Effect: 45.7
  Synergy score (Mean): 0.54
[5]; Table 2
  Synergy score (Mean): 0.435
  Max Combo Effect: 60.3
[5]; Table 3
  Synergy score (Mean): 0.21
  Max Combo Effect: 51.2
[6]; CHP-134 (ALK WT), Table 2
  Synergy score (Mean): 0.388
  Max Combo Effect: 52.3
[6]; CHP-134 (WT), Table 3
  Synergy score (Mean): 0.35
  Max Combo Effect: 48.76
[7]; Table 2
  Synergy score (Mean): 1.476
  Max Combo Effect: 98.6
[7]; Table 3
  Synergy score (Mean): 0.97
  Max Combo Effect: 61.5
[8]; Table 2
  Max Combo Effect: 60.5
  Synergy score (Mean): 0.255
[8]; Table 3
  Max Combo Effect: 27.66
  Synergy score (Mean): 0.19
[9]; Table 2
  Synergy score (Mean): 1.032
  Max Combo Effect: 121.1
[9]; Table 3
  Synergy score (Mean): 0.38
  Max Combo Effect: 91.57
[10]; 15 cell lines of Table 2
  Mean of synergy scores over the cell lines: 0.757
  Median of synergy scores over the cell lines: 0.788
[10]; Example A, FIGS. 4A, 4B, 15 cell lines
  Single-agent efficacy over the panel (self-cross scatter plots): single-agent efficacy (>100) in two disease cell lines and one normal cell line; also recorded: minimal single agent efficacy or synergy
[10]; Example G, FIG. 21, 16 cell lines
  Efficacy and synergy over the panel (scatter plots): no single agent efficacy in any of the cell lines tested
